Numbers after ± are expanded uncertainties.
Assay: xn = mol fraction of the nth substance listed
Conditions: 304.21 K, Fluid (supercritical or subcritical phases), Vibrating tube method, x1 = 0.97

O=C=O [carbon dioxide] + CO
Conditions	mass density [kg/m3]
9100 kPa	759.25 ± 0.82
9125 kPa	759.92 ± 0.82
9150 kPa	760.55 ± 0.82
9175 kPa	761.24 ± 0.82
9200 kPa	761.88 ± 0.82
9225 kPa	762.52 ± 0.82
9250 kPa	763.15 ± 0.82
9275 kPa	763.76 ± 0.82
9300 kPa	764.36 ± 0.82
9325 kPa	764.98 ± 0.82
9350 kPa	765.65 ± 0.82
9375 kPa	766.27 ± 0.82
9400 kPa	766.88 ± 0.82
9425 kPa	767.44 ± 0.82
9450 kPa	768.06 ± 0.82
9475 kPa	768.6 ± 0.82
9500 kPa	769.12 ± 0.82
9525 kPa	769.73 ± 0.82
9550 kPa	770.22 ± 0.82
9575 kPa	770.76 ± 0.82
9600 kPa	771.35 ± 0.82
9625 kPa	771.96 ± 0.82
9650 kPa	772.5 ± 0.82
9675 kPa	773.03 ± 0.82
9700 kPa	773.62 ± 0.82
9725 kPa	774.15 ± 0.82
9750 kPa	774.65 ± 0.82
9775 kPa	775.2 ± 0.82
9800 kPa	775.72 ± 0.82
9825 kPa	776.25 ± 0.82
9850 kPa	776.81 ± 0.82
9875 kPa	777.3 ± 0.82
9900 kPa	777.81 ± 0.82
9925 kPa	778.36 ± 0.82
9950 kPa	778.83 ± 0.82
9975 kPa	779.32 ± 0.82
10000 kPa	779.86 ± 0.82
10025 kPa	780.3 ± 0.82
10050 kPa	780.81 ± 0.82
10075 kPa	781.33 ± 0.82
10100 kPa	781.81 ± 0.82
10125 kPa	782.29 ± 0.82
10150 kPa	782.79 ± 0.82
10175 kPa	783.3 ± 0.82
10200 kPa	783.77 ± 0.82
10225 kPa	784.17 ± 0.82
10250 kPa	784.67 ± 0.82
10275 kPa	785.18 ± 0.82
10300 kPa	785.65 ± 0.82
10325 kPa	786.13 ± 0.82
10350 kPa	786.55 ± 0.82
10375 kPa	787.08 ± 0.82
10400 kPa	787.51 ± 0.82
10425 kPa	787.92 ± 0.82
10450 kPa	788.38 ± 0.82
10475 kPa	788.87 ± 0.82
10500 kPa	789.3 ± 0.82
10525 kPa	789.73 ± 0.82
10550 kPa	790.18 ± 0.82
10575 kPa	790.6 ± 0.82
10600 kPa	791.05 ± 0.82
